From patent US8889704B2 (Array BioPharma Inc., priority 2011, dated 2014)
Counter-ions that a name gives are not always drawn.

How the values were obtained:
Type in all cases: biochemical
PIM-1 = PIM-1 (Homo sapiens, UniProt P11309); assay: Enzyme PIM-1 Assay ([33P]ATP incorporation into PIM2tide, filter plate); settings: averaged IC50; 35 μM ATP, 7.5 μM PIM2tide, 0.25 nM PIM-1, 60 min at 22° C.
Method in brief: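 Radiometric assay: 0.25 nM PIM-1 phosphorylates 7.5 μM PIM2tide with 35 μM [γ-33P]ATP in 20 mM MOPS pH 7.4, 10 mM MgCl2, 1 mM DTT, 0.005% Tween-20, 60 min at 22 °C. Product captured on P81 filters, scintillation counted; 10-point 3-fold curve from 10 μM top, 2% DMSO, IC50 by 4-parameter logistic fit of POC.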

[1] = biological target: T1, GST-tagged recombinant full-length human Pim-2 (Homo sapiens, UniProt Q9P1W9); assay: PIM-2 Assay (as Example A); settings: averaged IC50; 4 μM ATP, 1.0 μM PIM2tide, 1.5 nM Pim-2
T1 construct: GST-tagged recombinant full-length human Pim-2; GST
Method in brief: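 Radiometric filter-binding assay: GST-tagged full-length human Pim-2 (1.5 nM) phosphorylates 1.0 μM PIM2tide with 4 μM [γ-33P]ATP for 60 min at 22 °C in pH 7.4 MOPS buffer, 2% DMSO. 10-point 3-fold dilutions from 10 μM top dose; IC50 from 4-parameter fit of percent of control.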

recombinant rat PIM-3 = recombinant rat PIM-3 (Rattus norvegicus, UniProt O70444); assay: PIM-3 Assay (as Example A); settings: averaged IC50; 30 μM ATP, 3.75 μM PIM2tide, 0.5 nM PIM-3
Method in brief: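 Recombinant rat PIM-3 (0.5 nM) with 3.75 μM PIM2tide and 30 μM [γ-33P]ATP in MOPS pH 7.4 buffer, 60 min at 22 °C; labelled peptide captured on phosphocellulose filters and counted by scintillation. 10-point curve (top dose 10 μM, 2% DMSO); IC50 from 4-parameter fit of percent of control.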

T1 sequence (Q9P1W9 whole entry): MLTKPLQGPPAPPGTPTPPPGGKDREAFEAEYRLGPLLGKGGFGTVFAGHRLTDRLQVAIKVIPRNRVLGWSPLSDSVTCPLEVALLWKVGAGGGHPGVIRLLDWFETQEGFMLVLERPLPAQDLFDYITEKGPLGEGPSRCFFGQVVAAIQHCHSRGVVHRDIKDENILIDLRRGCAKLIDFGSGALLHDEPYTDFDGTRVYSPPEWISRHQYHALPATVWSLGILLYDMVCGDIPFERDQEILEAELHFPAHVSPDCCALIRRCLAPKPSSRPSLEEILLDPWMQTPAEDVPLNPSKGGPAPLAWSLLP
Chain of PIM-1 (P11309 whole entry, species assumed): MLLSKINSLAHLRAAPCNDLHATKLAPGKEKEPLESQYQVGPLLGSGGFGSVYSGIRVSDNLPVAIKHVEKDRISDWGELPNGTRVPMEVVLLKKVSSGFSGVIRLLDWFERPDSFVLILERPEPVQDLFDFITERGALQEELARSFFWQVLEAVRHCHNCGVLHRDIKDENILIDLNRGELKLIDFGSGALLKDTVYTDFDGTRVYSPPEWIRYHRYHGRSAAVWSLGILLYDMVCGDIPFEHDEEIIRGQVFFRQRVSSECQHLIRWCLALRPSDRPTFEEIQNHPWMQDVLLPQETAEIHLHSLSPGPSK

IC50 (PIM-1) | IC50 [1] | IC50 (recombinant rat PIM-3) | SMILES
0.17 nM | > 100 nM | 32 nM | CCc1cccc2ccc(-c3nnc4ccc([C@@H](N5C[C@@H](O)[C@H](O)C5)C(F)(F)F)cn34)nc12 [Example 73, (3R,4R)-1-((R)-1-(3-(8-ethylquinolin-2-yl)-[1,2,4]triazolo[4,3-a]pyridin-6-yl)-2,2,2-trifluoroethyl)pyrrolidine-3,4-diol]
0.09 nM | 41 nM | 6.7 nM | CC(C)(C)c1cccc2ccc(-c3nnc4ccc([C@@H](N5C[C@@H](O)[C@H](O)C5)C(F)(F)F)cn34)nc12 [Example 74, (3R,4R)-1-((R)-1-(3-(8-tert-butylquinolin-2-yl)-[1,2,4]triazolo[4,3-a]pyridin-6-yl)-2,2,2-trifluoroethyl)pyrrolidine-3,4-diol]
1.84 nM | > 100 nM | 18 nM | CC(C)Oc1c(C#N)ccc2ccc(-c3nnc4ccc([C@@H](N5CC[C@H](N)C5)C(F)(F)F)cn34)nc12 [Example 75, 2-(6-((R)-1-((S)-3-aminopyrrolidin-1-yl)-2,2,2-trifluoroethyl)-[1,2,4]triazolo[4,3-a]pyridin-3-yl)-8-isopropoxyquinoline-7-carbonitrile dihydrochloride]
0.4 nM | 52 nM | 3.6 nM | FC(F)(F)[C@H](c1ccc2nnc(-c3ccc4cccc(OCC5CC5)c4n3)n2c1)N1C[C@@H]2C[C@H]1CN2 [Example 76, 2-(6-((S)-1-((1S,4S)-2,5-diazabicyclo[2.2.1]heptan-2-yl)-2,2,2-trifluoroethyl)-[1,2,4]triazolo[4,3-a]pyridin-3-yl)-8-(cyclopropylmethoxy)quinoline dihydrochloride]
0.16 nM | 10 nM | 0.3 nM | FC(F)(F)[C@H](c1ccc2nnc(-c3ccc4ccc(C5CC5)cc4n3)n2c1)N1C[C@@H]2C[C@H]1CN2 [Example 77, 2-(6-((S)-1-((1S,4S)-2,5-diazabicyclo[2.2.1]heptan-2-yl)-2,2,2-trifluoroethyl)-[1,2,4]triazolo[4,3-a]pyridin-3-yl)-7-cyclopropylquinoline dihydrochloride]
0.24 nM | > 100 nM | 10 nM | O[C@@H]1CN([C@H](c2ccc3nnc(-c4ccc5cccc(C6CC6)c5n4)n3c2)C(F)(F)F)C[C@H]1O [Example 78, (3R,4R)-1-((R)-1-(3-(8-cyclopropylquinolin-2-yl)-[1,2,4]triazolo[4,3-a]pyridin-6-yl)-2,2,2-trifluoroethyl)pyrrolidine-3,4-diol]
0.16 nM | 58 nM | 3 nM | CCOc1cccc2ccc(-c3nnc4ccc([C@@H](N5CC[C@H](N)C5)C(F)(F)F)cn34)nc12 [Example 79, (S)-1-((R)-1-(3-(8-ethoxyquinolin-2-yl)-[1,2,4]triazolo[4,3-a]pyridin-6-yl)-2,2,2-trifluoroethyl)pyrrolidin-3-amine]
6.41 nM | > 100 nM | 32 nM | COc1cccc2ccc(-c3nnc4ccc([C@@H](N5CC[C@H](NCCF)C5)C(F)(F)F)cn34)nc12 [Example 80, (S)—N-(2-fluoroethyl)-1-((R)-2,2,2-trifluoro-1-(3-(8-methoxyquinolin-2-yl)-[1,2,4]triazolo[4,3-a]pyridin-6-yl)ethyl)pyrrolidin-3-amine dihydrochloride]
0.37 nM | > 100 nM | 2.8 nM | CC(C)Oc1cccc2ccc(-c3nnc4ccc([C@@H](N5CC[C@H](NCCF)C5)C(F)(F)F)cn34)nc12 [Example 81, (S)—N-(2-fluoroethyl)-1-((R)-2,2,2-trifluoro-1-(3-(8-isopropoxyquinolin-2-yl)-[1,2,4]triazolo[4,3-a]pyridin-6-yl)ethyl)pyrrolidin-3-amine dihydrochloride]
1.13 nM | 28 nM | 1 nM | CC(C)(C)NC(=O)c1ccc2ccc(-c3nnc4ccc([C@@H](N5CC[C@H](N)C5)C(F)(F)F)cn34)nc2c1C1CC1 [Example 83, 2-(6-((R)-1-((S)-3-aminopyrrolidin-1-yl)-2,2,2-trifluoroethyl)-[1,2,4]triazolo[4,3-a]pyridin-3-yl)-N-tert-butyl-8-cyclopropylquinoline-7-carboxamide dihydrochloride]
0.73 nM | > 100 nM | 12 nM | N#Cc1ccc2ccc(-c3nnc4ccc([C@@H](N5CC[C@H](N)C5)C(F)(F)F)cn34)nc2c1 [Example 84, 2-(6-((R)-1-((S)-3-aminopyrrolidin-1-yl)-2,2,2-trifluoroethyl)-[1,2,4]triazolo[4,3-a]pyridin-3-yl)quinoline-7-carbonitrile]
0.14 nM | 31 nM | 0.3 nM | CC(C)Oc1cc(F)cc2ccc(-c3nnc4ccc([C@@H](N5CC[C@H](N)C5)C(F)(F)F)cn34)nc12 [Example 86, (S)-1-((R)-2,2,2-trifluoro-1-(3-(6-fluoro-8-isopropoxyquinolin-2-yl)-[1,2,4]triazolo[4,3-a]pyridin-6-yl)ethyl)pyrrolidin-3-amine hydrochloride]
35.5 nM | > 100 nM | > 100 nM | CC(C)NC(=O)c1cccc2ccc(-c3nnc4ccc([C@@H](N5CC[C@H](N)C5)C(F)(F)F)cn34)nc12 [Example 87, 2-(6-((R)-1-((S)-3-aminopyrrolidin-1-yl)-2,2,2-trifluoroethyl)-[1,2,4]triazolo[4,3-a]pyridin-3-yl)-N-isopropylquinoline-8-carboxamide dihydrochloride]
3.26 nM | > 100 nM | 18 nM | N#Cc1cccc2ccc(-c3nnc4ccc([C@@H](N5CC[C@H](N)C5)C(F)(F)F)cn34)nc12 [Example 88, 2-(6-((R)-1-((S)-3-aminopyrrolidin-1-yl)-2,2,2-trifluoroethyl)-[1,2,4]triazolo[4,3-a]pyridin-3-yl)quinoline-8-carbonitrile dihydrochloride]
5.38 nM | > 100 nM | 14 nM | N#Cc1cccc2ccc(-c3nnc4ccc([C@@H](N5C[C@@H]6C[C@H]5CN6)C(F)(F)F)cn34)nc12 [Example 89, 2-(6-((R)-1-((1S,4S)-2,5-diazabicyclo[2.2.1]heptan-2-yl)-2,2,2-trifluoroethyl)-[1,2,4]triazolo[4,3-a]pyridin-3-yl)quinoline-8-carbonitrile dihydrochloride]
2.26 nM | > 100 nM | 23 nM | CC(C)Oc1cccc2ccc(-c3nnc4ccc([C@H](N5CC[C@@](C)(N)C5)C(F)(F)F)cn34)nc12 [Example 90, (R)-3-methyl-1-((S)-2,2,2-trifluoro-1-(3-(8-isopropoxyquinolin-2-yl)-[1,2,4]triazolo[4,3-a]pyridin-6-yl)ethyl)pyrrolidin-3-amine dihydrochloride]
0.25 nM | > 100 nM | 2.6 nM | CC(C)Oc1cccc2ccc(-c3nnc4ccc([C@@H](N5CC[C@@](C)(N)C5)C(F)(F)F)cn34)nc12 [Example 91, (R)-3-methyl-1-((R)-2,2,2-trifluoro-1-(3-(8-isopropoxyquinolin-2-yl)-[1,2,4]triazolo[4,3-a]pyridin-6-yl)ethyl)pyrrolidin-3-amine dihydrochloride]
0.22 nM | 33 nM | 0.8 nM | CC(C)Oc1cccc2ccc(-c3nnc4ccc([C@H](N5CC[C@](C)(N)C5)C(F)(F)F)cn34)nc12 [Example 92, (S)-3-methyl-1-((S)-2,2,2-trifluoro-1-(3-(8-isopropoxyquinolin-2-yl)-[1,2,4]triazolo[4,3-a]pyridin-6-yl)ethyl)pyrrolidin-3-amine dihydrochloride]
0.2 nM | 83 nM | 0.9 nM | CC(C)Oc1cccc2ccc(-c3nnc4ccc([C@@H](N5CC[C@](C)(N)C5)C(F)(F)F)cn34)nc12 [Example 93, (S)-3-methyl-1-((R)-2,2,2-trifluoro-1-(3-(8-isopropoxyquinolin-2-yl)-[1,2,4]triazolo[4,3-a]pyridin-6-yl)ethyl)pyrrolidin-3-amine dihydrochloride]
0.29 nM | 31 nM | 4.6 nM | C[C@@]1(N)CCN([C@@H](c2ccc3nnc(-c4ccc5cccc(C6CC6)c5n4)n3c2)C(F)(F)F)C1 [Example 94, (R)-1-((S)-1-(3-(8-cyclopropylquinolin-2-yl)-[1,2,4]triazolo[4,3-a]pyridin-6-yl)-2,2,2-trifluoroethyl)-3-methylpyrrolidin-3-amine dihydrochloride]
0.19 nM | 79 nM | 3 nM | C[C@@]1(N)CCN([C@H](c2ccc3nnc(-c4ccc5cccc(C6CC6)c5n4)n3c2)C(F)(F)F)C1 [Example 95, (R)-1-((R)-1-(3-(8-cyclopropylquinolin-2-yl)-[1,2,4]triazolo[4,3-a]pyridin-6-yl)-2,2,2-trifluoroethyl)-3-methylpyrrolidin-3-amine dihydrochloride]
